Laboratory results taken from patent US6951869B2, “Use of leukotriene receptor antagonist for treatment of scarring” (priority 2002, dated 2005).

Key:
capsular contracture = experiment: Treatment of capsular contracture after breast implantation in patients (case reports, Bakers Class); type: in vivo, human
Description: The breasts remained soft until 4 years and 2 months following the operation. The left breast then developed Bakers Class III capsular contracture, but the right breast remained soft. Patient was then placed on ACCOLATE® 20 mg, twice daily. One month following the prescription of ACCOLATE®, the left breast was softer (Bakers Class II) and three months later, it was even softer (Bakers Class I). Four months following ACCOLATE® therapy, both breasts were soft again (Bakers Class I). […] Two weeks following the operation, patient developed bilateral Bakers Class III capsular contractures. […] Three months following the ACCOLATE® therapy, both breasts had achieved Bakers Class I status and at 8 months post-ACCOLATE® therapy, both breasts remained soft and at Bakers Class I level. […] Twenty days following the second operation, patient noted an increasing firmness of both breasts and breast massage and vitamin E therapy was continued. However, four months following the second operation, patient developed a severe capsular contracture in the left breast (Bakers Class IV). The right breast, however, remained soft (Bakers Class I). Patient was placed on ACCOLATE® at 20 mg twice daily. […] person was diagnosed with infiltrating ductal carcinoma in the left breast in June of 2000. Patient underwent a modified radical mastectomy with immediate reconstruction with placement of a tissue expander. […] Postoperatively, patient received chemotherapy (ADRIAMYCIN®, Cyclophosphamide, TAXOL®) and was placed on a study protocol for HERCEPTIN®. In February of 2001, patient underwent exchange of the tissue expander for a […] textured saline implant which was placed submuscularly. Six weeks following the implant placement, patient received local radiation therapy to the left breast of which they received a total of 5000 rads. Immediately following the radiation therapy, patient noted redness and blistering of the skin surrounding the left breast. Three weeks post-radiation therapy, patient noted hardening of the left breast mound, which quickly progressed to a Bakers Class IV capsular contracture by the fifth week following radiation therapy. […] Patient was then placed on ACCOLATE® therapy at 20 mg twice a day. […] Additionally, patient noted a significant improvement in the mastectomy scar which had been extremely hard and firm prior to the ACCOLATE® therapy. […] person underwent augmentation mammoplasty in 1986. 250 cc silicon implants were placed on each side above the muscle. Postoperatively the subject had no complications. The breasts remained soft for 5 years. In 1991, subject noted increasing firmness in both breasts. Subject received no treatment at that time. 17 years after surgery, subject was presented for possible surgical intervention. Upon examination, subject was noted to have Bakers Class IV capsular contractures bilaterally and was placed on Zafirlukast (Accolate®) 20 mg two times daily. […] Three months post Zafirlukast (Accolate®) therapy, subject went progressed a Bakers Class IV to a Bakers Class III on the right and a Bakers Class II on the left.

mastectomy scar = experiment: Effect on mastectomy scar in a patient (case report); type: in vivo, human; conditions: Example IV patient, scar extremely hard and firm before therapy; 20 mg twice a day
Excerpt: Person was diagnosed with infiltrating ductal carcinoma in the left breast in June of 2000. Patient underwent a modified radical mastectomy with immediate reconstruction with placement of a tissue expander. […] Postoperatively, patient received chemotherapy (ADRIAMYCIN®, Cyclophosphamide, TAXOL®) and was placed on a study protocol for HERCEPTIN®. In February of 2001, patient underwent exchange of the tissue expander for a […] textured saline implant which was placed submuscularly. Six weeks following the implant placement, patient received local radiation therapy to the left breast of which they received a total of 5000 rads. Immediately following the radiation therapy, patient noted redness and blistering of the skin surrounding the left breast. Three weeks post-radiation therapy, patient noted hardening of the left breast mound, which quickly progressed to a Bakers Class IV capsular contracture by the fifth week following radiation therapy. […] Patient was then placed on ACCOLATE® therapy at 20 mg twice a day. […] Additionally, patient noted a significant improvement in the mastectomy scar which had been extremely hard and firm prior to the ACCOLATE® therapy.

[1] = 20 mg twice daily accepted dosage, adults and children ages 12 and up; cited from earlier work
[2] = Example IV patient, 20 mg twice a day, after one month

Row | Compound | Relief of capsular contracture (capsular contracture; Example IV patient, Bakers Class IV, given with breast massage, before ACCOLATE therapy) | Softness of breast implant (capsular contracture; Example IV patient, post-radiation Bakers Class IV before therapy, 20 mg twice a day, two weeks) | Bakers Class of capsular contracture, left breast implant (capsular contracture; [2]) | Pain and distortion (capsular contracture; [2]) | Softness of both breasts (capsular contracture; Example V patient, bilateral Bakers Class IV before therapy, 20 mg two times daily, 3 weeks) | Mastectomy scar appearance and hardness (mastectomy scar) | Reported side effect: headaches [1] [%] | Reported side effect: nausea [1] [%]
1 | vitamin E | without relief |  |  |  |  |  |  | 
2 | COc1cc(C(=O)NS(=O)(=O)c2ccccc2C)ccc1Cc1cn(C)c2ccc(NC(=O)OC3CCCC3)cc12 [ACCOLATE®] |  | noticeable softening | approaching a Bakers Class I softness | completely gone | some improvement | both softer and less noticeable | 12.9 | 3.1
